Experiment [1] addresses T1, human recombinant beta-2 adrenoreceptors (Homo sapiens, UniProt P07550).
T1 construct: expressed in transfected cells; host or cells: CHO cells
Kind of experiment: Functional agonism of human recombinant beta-2 adrenoreceptors expressed in CHO cells (cAMP HTRF). In kind it is cell-based. Conditions: CHO cells expressing human beta-2 adrenoreceptors, cAMP elevation, 30 min. The procedure, abridged:
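CHO cells expressing recombinant receptor incubated with compound for 30 min; intracellular cAMP rise over control read by HTRF. EC50 taken as concentration giving 50% of that compound's own maximal response, with full or partial agonism judged against isoproterenol maximum.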

For the next experiment, the target named is T2, Human recombinant PDE4B2 (Homo sapiens, UniProt Q07343).
T2 construct: purchased BPS Bioscience
T2 sequence (Q07343 1-564 isoform Q07343-2): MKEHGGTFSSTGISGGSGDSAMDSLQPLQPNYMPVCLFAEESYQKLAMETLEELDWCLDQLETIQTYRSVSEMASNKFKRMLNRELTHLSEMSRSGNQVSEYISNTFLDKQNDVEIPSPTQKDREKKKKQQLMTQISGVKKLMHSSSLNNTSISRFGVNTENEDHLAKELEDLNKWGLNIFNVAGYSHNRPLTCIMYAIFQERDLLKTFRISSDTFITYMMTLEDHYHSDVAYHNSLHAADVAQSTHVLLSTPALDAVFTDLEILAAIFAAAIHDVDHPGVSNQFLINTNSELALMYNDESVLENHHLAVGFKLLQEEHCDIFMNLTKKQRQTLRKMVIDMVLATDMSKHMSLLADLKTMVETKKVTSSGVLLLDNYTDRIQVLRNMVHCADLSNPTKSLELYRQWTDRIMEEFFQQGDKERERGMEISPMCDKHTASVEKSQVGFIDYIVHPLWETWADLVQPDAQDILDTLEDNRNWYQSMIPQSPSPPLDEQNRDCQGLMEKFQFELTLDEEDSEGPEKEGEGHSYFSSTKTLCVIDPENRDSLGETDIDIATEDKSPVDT
Kind of experiment: Inhibition of PDE4B4 enzyme activity (PDE Glo Assay). In kind it is biochemical. Particulars: human recombinant PDE4B2, 50 nM cAMP; read-out: PDE4 IC50. As to the method:
Biological Examples Inhibition of PDE4B4 Enzyme Activity
The inhibitory activity of test compounds were determined using the PDE Glo Assay (Promega, V1361). The PDE-Glo Reaction Buffer was prepared (1 mL 5× buffer+4 mL water) and 150 nM solution of test compound dissolved in the Reaction Buffer, followed by 1:3 serial dilutions into Reaction Buffer. […] Human recombinant PDE4B2 (BPS Bioscience) was added to test compound in Reaction Buffer at a concentration of 0.12 nM per reaction. The enzyme and test compound were pre-incubated together at rt for 10 min. 50 nM of the enzyme substrate cAMP was then added to initiate the enzyme reaction, with the reaction terminated after one hour. Termination Buffer (1 mL 5× termination buffer+3.9 mL water+100 μL of 100 mM IBMX (ICN Chemicals, in DMSO)), was added to each reaction well to terminate the reaction. Detection Buffer (1 mL 5×PDE-Glo Detection buffer+3.96 mL water+40 μL PKA (supplied in kit)) was added to the cAMP-enzyme-test compound mix and this secondary reaction proceeded for 20 minutes at rt. An equal volume of Kinase Glo Reagent was then added to the reaction mixture and after 10 min luminescence was measured using a luminometer (EnVision, 0.1 sec read for luminescence). Luminescence values were […] related to levels of cAMP in the reaction mixture. Data were plotted as relative light units (RLU) versus test compound concentration and the IC50 determined using GraphPad Prism 5.0, using a nonlinear curve fit in a single-site binding model.
IC50 determinations for the compounds presented above are seen in the first column of Table 1 (PDE4IC50).

Experiment [2] has as its system LPS-induced TNF-α release from human peripheral blood mononuclear cells (PBMC). Kind of experiment: Inhibition of LPS-induced TNF-α release from human PBMC. Particulars: LPS 0.4 ng/mL, 6 h, presence or absence of ICI-118551 not given. In kind it is cell-based. The essentials:
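Ficoll-purified primary PBMC, 100,000 cells/well, pre-incubated 30 min ± 10 μM ICI-118551 (± gives PDE4-only vs PDE4 plus beta-2 activity), then compound 1 h at 37 °C (0.1% DMSO). Stimulated with 0.4 ng/mL LPS for 6 h; supernatant TNF-α by bead cytokine assay; IC50 from single-site fit.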

Experiment [3] deals with T1, human recombinant beta-2 adrenoreceptors. Description: Beta-2 adrenoceptor binding assay ([3H](−)CGP-12177 displacement). Conditions: CHO cells expressing human beta-2 adrenoreceptors, [3H](−)CGP-12177 0.3 nM, 120 min. The procedure, abridged:
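Displacement of [3H](−)CGP-12177 (0.3 nM) from human recombinant beta-2 receptors expressed in CHO cells, measured after 120 min incubation with test compound. Bound radioligand counted by scintillation; IC50 taken from concentration-response curves as 50% of each compound's maximal inhibition.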

SMILES strings stand for the structures.

T1 sequence (P07550 whole entry): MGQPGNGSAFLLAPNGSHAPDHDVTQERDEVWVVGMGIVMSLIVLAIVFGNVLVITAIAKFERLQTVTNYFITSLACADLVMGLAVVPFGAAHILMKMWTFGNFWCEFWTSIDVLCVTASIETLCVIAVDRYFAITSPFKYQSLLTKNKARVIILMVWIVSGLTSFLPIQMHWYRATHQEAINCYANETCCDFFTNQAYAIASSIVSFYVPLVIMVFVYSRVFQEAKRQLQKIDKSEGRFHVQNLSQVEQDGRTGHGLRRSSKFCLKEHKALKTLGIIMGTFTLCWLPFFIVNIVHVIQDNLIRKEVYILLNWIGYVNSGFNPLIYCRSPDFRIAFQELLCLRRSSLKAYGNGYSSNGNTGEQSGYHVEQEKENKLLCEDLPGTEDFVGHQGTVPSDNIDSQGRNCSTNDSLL

With `COc1cccc(Nc2c(C(N)=O)cnc3c(C)cc(S(=O)(=O)c4cccc(C(=O)NCCCCCCNC[C@H](O)c5cc(O)cc6c5OCC(=O)N6)c4)cc23)c1` [Example 23, (R)-6-((3-((6-((2-hydroxy-2-(6-hydroxy-3-oxo-3,4-dihydro-2H-benzo[b][1,4]oxazin-8-yl)ethyl)amino)hexyl)carbamoyl)phenyl)sulfonyl)-4-((3-methoxyphenyl)amino)-8-methylquinoline-3-carboxamide], the EC50 in experiment [1] and in experiment [2] was below 0.1 µM each time. The IC50 (on Human recombinant PDE4B2; in experiment [3]) was below 0.1 µM each time.
Turning to `COc1cccc(Nc2c(C(N)=O)cnc3c(C)cc(S(=O)(=O)c4cccc(C(=O)N(C)CCOc5ccc(CCNC[C@H](O)c6ccc(O)c7[nH]c(=O)ccc67)cc5)c4)cc23)c1` [Example 25, (R)-6-((3-((2-(4-(2-((2-hydroxy-2-(8-hydroxy-2-oxo-1,2-dihydroquinolin-5-yl)ethyl)amino)ethyl)phenoxy)ethyl)(methyl)carbamoyl)phenyl)sulfonyl)-4-((3-methoxyphenyl)amino)-8-methylquinoline-3-carboxamide], the EC50 in experiment [1] and in experiment [2] was below 0.1 µM throughout. Also, the results for the IC50 (at Human recombinant PDE4B2; in experiment [3]) were below 0.1 µM and above 0.3 µM, respectively.
With `COc1cccc(Nc2c(C(N)=O)cnc3c(C)cc(S(=O)(=O)c4cccc(C(=O)NCCCCCCNC[C@H](O)c5ccc(O)c(NC=O)c5)c4)cc23)c1` [Example 27, (R)-6-[[3-[[6-[[2-(3-Formamido-4-hydroxyphenyl)-2-hydroxyethyl]amino]hexyl]carbamoyl]phenyl]sulfonyl]-4-((3-methoxyphenyl)amino]-8-methylquinoline-3-carboxamide], the EC50 in experiment [1] and in experiment [2] was below 0.1 µM in each case. For the same compound, the IC50 (at Human recombinant PDE4B2; in experiment [3]) was below 0.1 µM throughout.
`COc1cccc(Nc2c(C(N)=O)cnc3c(C)cc(S(=O)(=O)c4cccc(C(=O)N(C)CCCCCCNC[C@H](O)c5ccc(O)c(NC=O)c5)c4)cc23)c1` [Example 28, (R)-6-((3-((6-((2-(3-formamido-4-hydroxyphenyl)-2-hydroxyethyl)amino)hexyl)(methyl)carbamoyl)phenyl)sulfonyl)-4-((3-methoxyphenyl)amino)-8-methylquinoline-3-carboxamide]: the EC50 in experiment [1] and in experiment [2] was below 0.1 µM throughout. In addition, the IC50 at Human recombinant PDE4B2 was below 0.1 µM; in experiment [3], above 0.3 µM.
For `COc1cccc(Nc2c(C(N)=O)cnc3c(C)cc(S(=O)(=O)c4cccc(C(=O)NCCCCCCNC[C@H](O)c5ccc(O)c6c5OCC(=O)N6)c4)cc23)c1` [Example 29, (R)-6-((3-((6-((2-hydroxy-2-(5-hydroxy-3-oxo-3,4-dihydro-2H-benzo[b][1,4]oxazin-8-yl)ethyl)amino)hexyl)carbamoyl)phenyl)sulfonyl)-4-((3-methoxyphenyl)amino)-8-methylquinoline-3-carboxamide], the EC50 in experiment [1] and in experiment [2] was below 0.1 µM each time. Further, the IC50 (on Human recombinant PDE4B2; in experiment [3]) was below 0.1 µM in each case.
`COc1cccc(Nc2c(C(N)=O)cnc3c(C)cc(S(=O)(=O)c4cccc(C(=O)N(C)CCCCCCNC[C@H](O)c5ccc(O)c6c5OCC(=O)N6)c4)cc23)c1` [Example 30, (R)-6-((3-((6-((2-hydroxy-2-(5-hydroxy-3-oxo-3,4-dihydro-2H-benzo[b][1,4]oxazin-8-yl)ethyl)amino)hexyl)(methyl)carbamoyl)phenyl)sulfonyl)-4-((3-methoxyphenyl)amino)-8-methylquinoline-3-carboxamide]: the EC50 in experiment [1] and in experiment [2] was below 0.1 µM throughout. The half-inhibitory concentration (IC50) (at Human recombinant PDE4B2; in experiment [3]) was below 0.1 µM each time.

These data come from US8394829B2, “Bi-functional quinoline analogs” (Gilead Sciences, Inc., priority 2010, dated 2013).
